Reference: US20090285836A1 (NEREUS PHARMACEUTICALS, INC., priority 2008, published 2009)
Converted amounts (≈) assume the structure as drawn.

What was measured:
[1] = tested on: YY1; test: YY1 promoter luciferase reporter and YY1 expression; format: cell-based; conditions: pYY1-luciferase reporter (FIG. 11A)
Description: TRAIL is produced by immune cells, and is a ligand for death receptors DR4, DR5, DcR1, and DcR2. […] Controls included untransfected (UNT) and DMSO. […] RKIP may have a direct role in the NPI-0052-induced sensitization to TRAIL. […] RKIP overexpression results in DR5 upregulation and cell sensitization to TRAIL-mediated apoptosis. YY1 acts as a suppressor of DR5 transcription and is positively regulated by NF-κB. […] Transfection controls include medium only and siRNA negative control. YY1 has a direct role in tumor sensitization to TRAIL apoptosis. […] Controls include transfected with the YY1-lucificerase reporter construct only, and cells treated with 10 μg/ml DHMEQ only. […] CMV-RKIP inhibited both mRNA transcription and protein expression of YY1. YY1 is inhibited by RKIP overexpression via NF-κB down-regulation.

[2] = tested on: Snail; test: Snail expression (RT-PCR, Western blot); conditions: DU-145, 5 or 10 μg/ml DHMEQ, 24 h, Western blot (FIG. 21D)
Method: (§4) DU-145 cells were treated with 5 or 10 μg/ml DHMEQ and protein lysates were harvested 24 h after treatment for RKIP and Snail protein determination by Western blot.

[3] = tested on: RKIP; test: RKIP expression (RT-PCR, Western blot); conditions: DU-145, 5 or 10 μg/ml DHMEQ, 24 h, Western blot (FIG. 21D)
Method: RKIP transcript levels were determined by RT-PCR for each time point tested (0-12 h). Normalized mRNA values were derived by dividing the mRNA value of each target gene with the corresponding quantity of GAPDH mRNA. Statistical analysis was performed using the Mann-Whitney U test. P values: treated vs untreated cells. The data represent the mean values±SEM from three independent experiments. […] Protein levels were also determined. Protein lysates were harvested at various time points and subjected to Western Blot analysis for RKIP protein. Actin was used as an internal control for loading. Blots are representative of three independent and reproducible experiments.
as §4

[4] = tested on: National Cancer Institute's 60-cell-line panel; conditions: cited from earlier work
[5] = tested on: human colony-forming assays; conditions: single agent; cited from earlier work
[6] = tested on: DU-145 cells; test: drug titration, trypan blue exclusion assay; format: cell-based, human
[7] = single agent, mice models; cited from earlier work
[8] = tested on: MDA-MB-435 breast cancer; conditions: read-out: LC50; cited from earlier work
[9] = tested on: SK-MEL-28 melanoma; conditions: read-out: LC50; cited from earlier work
[10] = tested on: HCT-116 human colon carcinoma; conditions: cited from earlier work
[11] = tested on: SF-539 CNS cancer; conditions: read-out: LC50; cited from earlier work
[12] = tested on: DU-145 cells; test: in vitro Matrigel cell invasion assay; format: cell-based, human; conditions: DU-145, 100 ng/ml TNF-α
Method: (§1) The functional significance of the NPI-0052-induced changes in the expression profiles of the above metastasis-related gene products was expected to be reflected in the migratory and invasive cell properties.
(§2) In vitro cell invasion and migration assays were performed using the 24/well BD Biocoat 3 micron migration chambers or 8 micron Matrigel invasion chambers (Becton Dickinson Labware, Bedford, Mass.), respectively, according to manufacturer's instructions. For both assays, cells were starved for 4-5 h prior to setting up the assay by adding basal medium supplemented with 0.1% BSA. RPMI 1640 medium containing 10% serum was used as chemoatractant. […] Data were expressed as the fold cell migration derived from the mean RFU of cell migration through the membrane towards FBS divided by the mean RFU of cell migration in the absence of FBS. […] Invaded cells through Matrigel were counted under the microscope at 40× magnification. Data were expressed as the percent invasion through the Matrigel Matrix and membrane relative to the migration through the control insert membrane.
(§3) For migratory assays, 10^5 cells were seeded in the upper chamber, while in the lower chamber RPMI 1640 containing 10% FBS was added. […] Only labeled cells that had migrated through the pores of the membrane were detected. […]

[13] = tested on: DU-145 cells; test: in vitro cell migration assay; format: cell-based, human; conditions: DU-145, 100 ng/ml TNF-α
Method: as §1, §2, §3

For `O=C(NC1=CC(=O)[C@H]2O[C@H]2[C@H]1O)c1ccccc1O` [DHMEQ], the “YY1 promoter luciferase activity” value [1] was “inhibited YY1 luciferase activity”, the Snail protein [2] was “Snail suppression” and the RKIP protein [3] was “RKIP induction”.
For `C[C@@]12OC(=O)[C@]1([C@@H](O)[C@@H]1C=CCCC1)NC(=O)[C@@H]2CCCl` [NPI-0052, Salinosporamide A], the “LC50 differential between resistant and susceptible cell lines” value [4] is listed as “greater than 4 log”, the “toxicity in human colony-forming assays” value [5] is listed as “limited toxicity” and the “ID20 drug concentration (subtoxic concentration)” value [6] is listed as 50 nM. For the same molecule, the tolerance in vivo [7] was “good tolerance”, the CC50 [8] was < 10 nM and the CC50 [9] was < 10 nM. For the same molecule, the “IC50, in vitro cytotoxicity” value [10] was 0.011 µg/mL (≈ 0.0351 µM) and the CC50 [11] was < 10 nM.
For TNF-α, the “augmentation of invasion compared to untreated cells” value [12] was ~10 fold and the “augmentation of migration compared to untreated cells” value [13] was ~10 fold.
